Where two headings read alike, the source gives them in different places.
Key:
Type in all cases: in vivo
[1] = test system: Polygonum convolvulus (POLCO); assay: Pre-emergence herbicidal action against POLCO
Method in brief: (§1)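 Pre-emergence soil-surface spray, WP/EC formulation, 0.5% additive, 600 l/ha water, rates of 320 g/ha or lower. Greenhouse, ~3 wk. Visual score, % of untreated control (100% = plants dead, 0% = like control).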

[2] = test system: Polygonum convolvulus (POLCO); assay: Post-emergence herbicidal action against POLCO; conditions: dosage 320 g/ha
Method in brief: (§2)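 Post-emergence greenhouse spray, one-leaf stage, 600 l/ha water plus 0.5% additive; WP or EC formulations; application rates 320 g/ha or lower. Visual % damage vs untreated controls at ~3 weeks.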

[3] = test system: Pharbitis purpurea (PHBPU); assay: Pre-emergence herbicidal action against PHBPU; conditions: dosage 320 g/ha
Method in brief: as §1

Glycine max (GLXMA) = conditions: pre-emergence, 80 g/ha, crop plant compatibility, in comparison to untreated controls
Method in brief: (§3)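 Crop injury rated visually in percent against untreated plants roughly 3 weeks after treatment (0% no effect, 100% plants dead). Compounds, as WP or EC with 0.5% additive in 600 l/ha water, were applied to the covering soil right after sowing; greenhouse growth. Suffixes a, b, c denote different dosages.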

[4] = test system: Echinochloa crus-galli (ECHCG); assay: Pre-emergence herbicidal action against ECHCG; conditions: dosage 320 g/ha
Method in brief: as §1

Viola tricolor (VIOTR) [5] = assay: Pre-emergence herbicidal action against VIOTR
Method in brief: as §1

[6] = test system: Amaranthus retroflexus (AMARE); assay: Pre-emergence herbicidal action against AMARE; conditions: 320 g/ha, visual scoring after about 3 weeks vs untreated controls
Method in brief: as §1

[7] = test system: Echinochloa crus-galli (ECHCG); assay: Post-emergence herbicidal action against ECHCG; conditions: dosage 320 g/ha
Method in brief: as §2

[8] = test system: Verconica persica (VERPE); assay: Post-emergence herbicidal action against VERPE
Method in brief: as §2

Viola tricolor (VIOTR) [9] = assay: Post-emergence herbicidal action against VIOTR; conditions: 320 g/ha
Method in brief: as §2

[10] = test system: Pharbitis purpurea (PHBPU); assay: Post-emergence herbicidal action against PHBPU
Method in brief: as §2

[11] = test system: Triticum aestivum (TRZAS); conditions: crop plant compatibility, 80 g/ha, effect vs untreated controls
Method in brief: (§4)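 Effects were read visually as % versus untreated controls (0% = no effect, 100% = death) about 3 weeks post-treatment. Application was a post-emergence spray at the one-leaf stage of WP/EC formulations with 0.5% additive at 600 l/ha. Different dosages are denoted a, b and c.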

Oryza sativa (ORYSA) = conditions: crop plant compatibility, 80 g/ha, effect in comparison to untreated controls
Method in brief: as §4

Zea mays (ZEAMX) [12] = conditions: crop plant compatibility, 80 g/ha, effect vs untreated controls
Method in brief: as §4

Setaria viridis (SETVI) [13] = assay: Post-emergence herbicidal action against SETVI; conditions: dosage 320 g/ha
Method in brief: as §2

[14] = test system: Amaranthus retroflexus (AMARE); assay: Post-emergence herbicidal action against AMARE
Method in brief: as §2

Setaria viridis (SETVI) [15] = assay: Pre-emergence herbicidal action against SETVI; conditions: dosage 320 g/ha
Method in brief: as §1

[16] = test system: Alopecurus myosuroides (ALOMY); assay: Pre-emergence herbicidal action against ALOMY; conditions: 320 g/ha; scored visually after about 3 weeks; 100% = plants have died
Method in brief: as §1

Zea mays (ZEAMX) [17] = conditions: pre-emergence, crop plant compatibility, in comparison to untreated controls
Method in brief: as §3

[18] = test system: Matricaria inodora (MATIN); assay: Post-emergence herbicidal action against MATIN; conditions: dosage 320 g/ha
Method in brief: as §2

[19] = test system: Abutilon theophrasti (ABUTH); assay: Post-emergence herbicidal action against ABUTH; conditions: 320 g/ha, visual rating about 3 weeks after treatment vs untreated controls (100% = plants have died, 0% = like control plants)
Method in brief: as §2

[20] = test system: Matricaria inodora (MATIN); assay: Pre-emergence herbicidal action against MATIN
Method in brief: as §1

Lolium rigidum (LOLRI) [21] = assay: Post-emergence herbicidal action against LOLRI; conditions: dosage 320 g/ha
Method in brief: as §2

Lolium rigidum (LOLRI) [22] = assay: Pre-emergence herbicidal action against LOLRI; conditions: dosage 320 g/ha
Method in brief: as §1

Avena fatua (AVEFA) [23] = assay: Post-emergence herbicidal action against AVEFA; conditions: 320 g/ha, visual rating about 3 weeks after treatment
Method in brief: as §2

[24] = test system: Alopecurus myosuroides (ALOMY); assay: Post-emergence herbicidal action against ALOMY; conditions: 320 g/ha, visual rating about 3 weeks after treatment vs untreated controls (100% = plants have died, 0% = like control plants)
Method in brief: as §2

Avena fatua (AVEFA) [25] = assay: Pre-emergence herbicidal action against AVEFA; conditions: 320 g/ha, visual scoring after about 3 weeks vs untreated controls
Method in brief: as §1

[26] = 320 g/ha, visual rating about 3 weeks after treatment
[27] = 80 g/ha, visual rating about 3 weeks after treatment vs untreated controls (100% = plants have died, 0% = like control plants)

O=C(O)COc1nn(-c2ncccc2C(F)(F)F)c(-c2cncc(F)c2)c1Br [Example I-230]
10%: Post-emergence action against TRZAS in % [11]
80%: Pre-emergence action against POLCO in % ([1]; dosage 80 g/ha) | Post-emergence action against POLCO in % [2] | Pre-emergence action against VIOTR in % (Viola tricolor (VIOTR) [5]; dosage 80 g/ha) | Pre-emergence action against AMARE in % [6] | Post-emergence action against ECHCG in % [7] | Post-emergence action against VERPE in % ([8]; 320 g/ha, VERPE) | Post-emergence action against VERPE in % ([8]; dosage 80 g/ha) | Post-emergence action against VIOTR in % (Viola tricolor (VIOTR) [9]) | Post-emergence action against SETVI in % (Setaria viridis (SETVI) [13])
20%: Pre-emergence action against GLXMA in % (Glycine max (GLXMA))
0%: Post-emergence action against ORYSA in % (Oryza sativa (ORYSA)) | Post-emergence action against ZEAMX in % (Zea mays (ZEAMX) [12])
90%: Pre-emergence action against POLCO in % ([1]; dosage 320 g/ha) | Pre-emergence action against PHBPU in % [3] | Pre-emergence action against ECHCG in % [4] | Pre-emergence action against VIOTR in % (Viola tricolor (VIOTR) [5]; 320 g/ha, Viola tricolor) | Post-emergence action against PHBPU in % ([10]; dosage 320 g/ha) | Post-emergence action against AMARE in % [14, 26]
100%: Pre-emergence action against SETVI in % (Setaria viridis (SETVI) [15])

COC(=O)CCOC(=O)COc1nn(-c2ccccn2)c(-c2ccc(F)nc2)c1F [Example I-309]
0%: Pre-emergence action against GLXMA in % (Glycine max (GLXMA)) | Pre-emergence action against ZEAMX in % (Zea mays (ZEAMX) [17]; 80 g/ha)
90%: Pre-emergence action against ALOMY [16] | Pre-emergence action against AMARE in % [6] | Post-emergence action against ECHCG in % [7] | Post-emergence action against PHBPU in % ([10]; dosage 320 g/ha) | Post-emergence action against SETVI in % (Setaria viridis (SETVI) [13]) | Post-emergence action against AMARE in % [14, 27] | Post-emergence action against AMARE in % [14, 26] | Pre-emergence action against MATIN in % ([20]; dosage 320 g/ha) | Pre-emergence action against SETVI in % (Setaria viridis (SETVI) [15]) | Post-emergence action against LOLRI in % (Lolium rigidum (LOLRI) [21])
10%: Pre-emergence action against ZEAMX in % (Zea mays (ZEAMX) [17]; 320 g/ha)
80%: Pre-emergence action against POLCO in % ([1]; dosage 320 g/ha) | Post-emergence action against POLCO in % [2] | Post-emergence action against MATIN in % [18] | Pre-emergence action against ECHCG in % [4] | Post-emergence action against VERPE in % ([8]; 320 g/ha, VERPE) | Post-emergence action against VERPE in % ([8]; dosage 80 g/ha) | Post-emergence action against ABUTH in % [19] | Post-emergence action against PHBPU in % ([10]; dosage 80 g/ha)

C[C@@H](Oc1nn(-c2ncccc2F)c(-c2ccc(F)nc2)c1F)C(=O)O [Example I-306]
100%: Pre-emergence action against LOLRI in % (Lolium rigidum (LOLRI) [22]) | Post-emergence action against ALOMY in % [24]
0%: Pre-emergence action against GLXMA in % (Glycine max (GLXMA)) | Post-emergence action against ORYSA in % (Oryza sativa (ORYSA))
20%: Pre-emergence action against ZEAMX in % (Zea mays (ZEAMX) [17]; 80 g/ha)
80%: Post-emergence action against POLCO in % [2] | Pre-emergence action against VIOTR in % (Viola tricolor (VIOTR) [5]; 320 g/ha, Viola tricolor) | Post-emergence action against AVEFA in % (Avena fatua (AVEFA) [23]) | Post-emergence action against VIOTR in % (Viola tricolor (VIOTR) [9]) | Post-emergence action against AMARE in % [14, 27] | Post-emergence action against AMARE in % [14, 26] | Pre-emergence action against AVEFA in % (Avena fatua (AVEFA) [25]) | Pre-emergence action against SETVI in % (Setaria viridis (SETVI) [15])
90%: Pre-emergence action against ALOMY [16] | Pre-emergence action against AMARE in % [6] | Post-emergence action against ECHCG in % [7] | Post-emergence action against VERPE in % ([8]; 320 g/ha, VERPE) | Post-emergence action against SETVI in % (Setaria viridis (SETVI) [13]) | Pre-emergence action against MATIN in % ([20]; dosage 80 g/ha) | Pre-emergence action against MATIN in % ([20]; dosage 320 g/ha) | Post-emergence action against LOLRI in % (Lolium rigidum (LOLRI) [21])

— patent US20240041042A1, “1-(PYRIDYL)-5-AZINYLPYRAZOLE DERIVATIVES, AND THEIR USE FOR CONTROL OF UNDESIRED PLANT GROWTH” (Bayer Aktiengesellschaft, priority 2020, published 2024)
